Article PMC7935272 (PLoS Pathogens, 2021)
Where “and” joins values, the source holds several entries; their conditions need not be identical. Equal entries are not always repeated.

How the values were obtained:
[1] = system: MeV; experiment: Antiviral dose-response assay, MeV-NanoPEST reporter virus in Vero-hSLAM cells
[2] = in vitro; format: cell-based, African green monkey; conditions: African green monkey; Vero-hSLAM, 72 hours
Description: (§1) To determine cytotoxic concentrations Vero-hSLAM cells were plated in 96 well plates (1.1 × 10^4 per well) and incubated with three-fold serial dilutions of compound. After incubation of uninfected cells for 72 hours, PrestoBlue substrate (Invitrogen) was added to quantify cell metabolic activity as described. Signal was measured using a BioTek H1 synergy multimode microplate reader. Where applicable, cytotoxic concentrations (CC50) were calculated based on four-parameter variable slope regression modeling.

[3] = system: Vero-hSLAM cells; experiment: in vitro; format: cell-based, African green monkey
Description: as §1

[4] = molecular target: MeV L full length (Measles virus, UniProt Q9WMB3); experiment: Biolayer interferometry, full-length MeV P-L; format: binding; conditions: for S5 A BLI sensorgram response / S5 D BLI response versus compound conc.: MeV L full length; for steady-state BLI sensor response: S7 A
[5] = system: MeV L-P complexes L T776A; format: biochemical; conditions: primer extension, L T776A vs WT

## Cn1nc(C(F)(F)F)cc1C(=O)Nc1ccc(S(=O)(=O)N2CCCC[C@H]2CCN2CCOCC2)cc1 [ERDRP-0519, S(=O)(=O)(N1[C@H](CCN2CCOCC2)CCCC1)c1ccc(NC(=O)c2n(C)nc(C(F)(F)F)c2)cc1]
[1]
  EC50: 200 nM
[1]; cpd concentration 0.009145
  MeV inhibition, normalized reporter signal (Figure 5B): 105.005 and 86.0196
[1]; cpd concentration 0.027435
  MeV inhibition, normalized reporter signal (Figure 5B): 126.572 and 81.3143
[1]; cpd concentration 0.082305
  MeV inhibition, normalized reporter signal (Figure 5B): 101.803 and 75.4494
[1]; cpd concentration 0.246914
  MeV inhibition, normalized reporter signal (Figure 5B): 43.9689 and 25.1431
[1]; cpd concentration 0.740741
  MeV inhibition, normalized reporter signal (Figure 5B): 3.4563 and 3.061
[1]; cpd concentration 2.22222
  MeV inhibition, normalized reporter signal (Figure 5B): 0.8619 and 1.175
[1]; cpd concentration 6.66667
  MeV inhibition, normalized reporter signal (Figure 5B): 0.4673 and 0.8278
[2]
  CC50: > 100000 nM
[3]; cpd concentration 0.045725
  Cytotoxicity, normalized metabolic activity (Figure 5B): 92.6189 and 91.5198 and 89.1889
[3]; cpd concentration 0.137174
  Cytotoxicity, normalized metabolic activity (Figure 5B): 93.2443 and 94.6845 and 97.0722
[3]; cpd concentration 0.411523
  Cytotoxicity, normalized metabolic activity (Figure 5B): 98.6261 and 97.1101 and 101.469
[3]; cpd concentration 1.23457
  Cytotoxicity, normalized metabolic activity (Figure 5B): 100.919 and 98.2092 and 94.5139
[3]; cpd concentration 3.7037
  Cytotoxicity, normalized metabolic activity (Figure 5B): 98.683 and 65.7665 and 99.5736
[3]; cpd concentration 11.1111
  Cytotoxicity, normalized metabolic activity (Figure 5B): 96.5984 and 96.9017 and 98.6451
[3]; cpd concentration 33.3333
  Cytotoxicity, normalized metabolic activity (Figure 5B): 105.751 and 104.652 and 106.244
[3]; cpd concentration 100
  Cytotoxicity, normalized metabolic activity (Figure 5B): 82.5753 and 96.0868 and 96.0678
[4]; 0.003 µM, time 0 s
  S5 A BLI sensorgram response: -0.0003139
[4]; 0.003 µM, time 0.2 s
  S5 A BLI sensorgram response: -0.001098
[4]; 0.003 µM, time 0.4 s
  S5 A BLI sensorgram response: -0.001645
[4]; 0.003 µM, time 0.6 s
  S5 A BLI sensorgram response: -0.002393
[4]; 0.027 µM, time 0 s
  S5 A BLI sensorgram response: 0.0009777
[4]; 0.027 µM, time 0.2 s
  S5 A BLI sensorgram response: 0.001373
[4]; 0.027 µM, time 0.4 s
  S5 A BLI sensorgram response: 0.001785
[4]; 0.027 µM, time 0.6 s
  S5 A BLI sensorgram response: 0.001728
[4]; 0.08 µM, time 0 s
  S5 A BLI sensorgram response: 0.003123
[4]; 0.08 µM, time 0.2 s
  S5 A BLI sensorgram response: 0.003018
[4]; 0.08 µM, time 0.4 s
  S5 A BLI sensorgram response: 0.00257
[4]; 0.08 µM, time 0.6 s
  S5 A BLI sensorgram response: 0.002431
[4]; 0.74 µM, time 0 s
  S5 A BLI sensorgram response: 0.002177
[4]; 0.74 µM, time 0.2 s
  S5 A BLI sensorgram response: 0.002548
[4]; 0.74 µM, time 0.4 s
  S5 A BLI sensorgram response: 0.002706
[4]; 0.74 µM, time 0.6 s
  S5 A BLI sensorgram response: 0.002805
[4]; 2.22 µM, time 0 s
  S5 A BLI sensorgram response: 0.01086
[4]; 2.22 µM, time 0.2 s
  S5 A BLI sensorgram response: 0.01025
[4]; 2.22 µM, time 0.4 s
  S5 A BLI sensorgram response: 0.009623
[4]; 2.22 µM, time 0.6 s
  S5 A BLI sensorgram response: 0.009062
[4]; compound conc. 0.003 uM
  S5 D BLI response versus compound conc.: 0.005655
[4]; compound conc. 0.027 uM
  S5 D BLI response versus compound conc.: 0.009916
[4]; compound conc. 0.08 uM
  S5 D BLI response versus compound conc.: 0.008265
[4]; compound conc. 0.74 uM
  S5 D BLI response versus compound conc.: 0.01334
[4]; 0.003 uM
  steady-state BLI sensor response: 0.006846
[4]; 0.027 uM
  steady-state BLI sensor response: 0.008208
[4]; 0.08 uM
  steady-state BLI sensor response: 0.009438
[4]; 0.74 uM
  steady-state BLI sensor response: 0.01375
[4]; 6.67 uM
  steady-state BLI sensor response: 0.01276
[4]; 20 uM
  steady-state BLI sensor response: 0.01504
[5]
  IC50 increase: 2.5 fold
